Results from patent publication US9187467B2, “2-phenyl benzothiazole linked imidazole compounds as potential anticancer agents and process for the preparation thereof” (Council of Scientific and Industrial Research, priority 2012, dated 2015).

Experiments:
CCRF-CEM = assay: SRB anticancer assay, leukemia; format: cell-based, human; set-up: Log10GI50: unit not given here; conditions: for GI50: Homo sapiens, 48 h; for Log10GI50: present compounds
RPMI-8226 = assay: SRB anticancer assay, leukemia; format: cell-based; conditions: Homo sapiens, RPMI-8226, 48 h
HOP-62 = assay: SRB anticancer assay, non-small lung; format: cell-based, human; conditions: for GI50: Homo sapiens, HOP-62, 48 h; for Log10GI50: HOP-62, present compounds
HCC-2998 = assay: SRB anticancer assay, colon; format: cell-based, human; conditions: Homo sapiens; HCC-2998, 48 h
HCT-15 = assay: SRB anticancer assay, colon; format: cell-based, human; conditions: Homo sapiens, HCT-15, 48 h
HT29 = assay: SRB anticancer assay, colon; format: cell-based, human; conditions: Homo sapiens, HT-29; HT29, 48 h
SW-620 = assay: SRB anticancer assay, colon; format: cell-based, human; set-up: Log10GI50: unit not given here; conditions: for GI50: Homo sapiens, SW-620, 48 h; for Log10GI50: SW-620, present compounds
M14 = assay: SRB anticancer assay, melanoma; format: cell-based, human; set-up: Log10GI50: unit not given here; conditions: for GI50: Homo sapiens, M14, 48 h; for Log10GI50: M14, present compounds
[1] = system: sixty human cancer cell lines; assay: SRB anticancer assay, all cell lines; format: cell-based; conditions: all the cell lines; exposure at least 48 h
MOLT-4 = assay: SRB anticancer assay, leukemia; format: cell-based, human; set-up: Log10GI50: unit not given here; conditions: for GI50: Homo sapiens, MOLT-4, 48 h; for Log10GI50: MOLT, present compounds
EKVX = assay: SRB anticancer assay, non-small lung; format: cell-based, human; set-up: Log10GI50: unit not given here; conditions: for GI50: Homo sapiens, 48 h; for Log10GI50: present compounds
COLO 205 = assay: SRB anticancer assay, colon; format: cell-based, human; conditions: Homo sapiens, COLO 205, 48 h
MDA-MB-435 = assay: SRB anticancer assay, melanoma; format: cell-based, human; set-up: Log10GI50: unit not given here; conditions: for GI50: Homo sapiens, MDA-MB-435, 48 h; for Log10GI50: MDA-MB-435, present compounds
HOP-92 = assay: SRB anticancer assay, non-small lung; format: cell-based, human; set-up: Log10GI50: unit not given here; conditions: for Log10GI50: HOP-92, present compounds; for GI50: Homo sapiens, HOP-92, 48 h
CAKI-1 = assay: SRB anticancer assay, renal; format: cell-based, human; set-up: Log10GI50: unit not given here; conditions: for Log10GI50: CAKI-1, present compounds; for GI50: Homo sapiens, CAKI-1, 48 h
MDA-MB-468 = assay: SRB anticancer assay, breast; format: cell-based, human; set-up: unit not given here; conditions: present compounds
[2] = system: microtubule network of MCF-7 cells; assay: Effect on microtubule network; format: cell-based; conditions: 2 μM
Experimental: FIG. 2 represents effect of compound 7d, the effective compound on the microtubule network of MCF-7 cells untreated cells (Con), nocodazole (Noc) and 7d at 2 μM concentration. Microtubules and unassembled tubulin are shown in green and DNA was stained with nuclear dye DAPI (4,6-diamidino-2-phenylindole) is shown in blue colour.
Inhibition of tubulin is associated with G2/M cell cycle arrest by interrupting chromosome segregation and affecting mitotic spindle formation. […] It was considered of interest to understand the mechanism of anti-cancer activity of compound 7d with regard to interaction with microtubule system. MCF-7 breast cancer cells were treated with Nocodazole (Noc), 7d compounds at 2 μM concentration.

caspase-9 = assay: Western blot, apoptosis proteins in MCF-7 cells; format: cell-based; conditions: 2 μM, 24h
Experimental: (§1) FIG. 3 represents effect of compound 7d and 7h on p21 and caspase-9. MCF-7 cells were treated with 2 μM concentration of compounds 7d and 7h for 24h. The cell lysates were collected and probed with anti-bodies against p21 and caspase-9. beta-actin was used as loading control. Con: Control (untreated).
(§2) Activation of tumor suppressor gene p21 was the important regulator of apoptotic pathway caused by various stimuli. In many instances the apoptotic cell death is mediated by caspases, thus the possible involvement of p21 and caspase protein and its role in apoptosis has been investigated. MCF-7 cells were treated with 7d, 7h (the effective compounds of cell cycle arrest) 21a, 21d and CA-4 at 2 μM concentration.

p21 = assay: Western blot, apoptosis proteins in MCF-7 cells; format: cell-based; conditions: 2 μM, 24h
Experimental: as §1, §2

| Compound | GI50 (CCRF-CEM) | GI50 (RPMI-8226) | GI50 (HOP-62) | GI50 (HCC-2998) | GI50 (HCT-15) | GI50 (HT29) | GI50 (SW-620) | GI50 (M14) | mean graph midpoint values (MG_MID) of log10LC50, range [1] | GI50 (MOLT-4) | GI50 (EKVX) | GI50 (COLO 205) | GI50 (MDA-MB-435) | Log10GI50 (MOLT-4) | Log10GI50 (EKVX) | Log10GI50 (HOP-92) | GI50 (HOP-92) | Log10GI50 (SW-620) | GI50 (CAKI-1) | Log10GI50 (MDA-MB-468) | further results |
| --- | --- | --- | --- | --- | --- | --- | --- | --- | --- | --- | --- | --- | --- | --- | --- | --- | --- | --- | --- | --- | --- |
| COc1cc(OC)c2sc(-c3ccc(-n4cncc4-c4ccc(OC)c(OC)c4)cc3)nc2c1 [Compound 6e, 2-(4-(5-(3,4-Dimethoxyphenyl)-1H-imidazol-1-yl)phenyl)-5,7-dimethoxybenzo[d]thiazole] | > 100 µM | > 100 µM | 35.5 µM | > 100 µM | > 100 µM | 7.13 µM | > 100 µM | > 100 µM | −4.00 |  |  |  |  |  |  |  |  |  |  |  |  |
| COc1cc(OC)c2sc(-c3ccc(-n4cncc4-c4cc(OC)c(OC)c(OC)c4)cc3)nc2c1 [Compound 6f, 5,7-Dimethoxy-2-(4-(5-(3,4,5-trimethoxyphenyl)-1H-imidazol-1-yl)phenyl)benzo[d]thiazole] | 3.95 µM | 5.39 µM | 75.9 µM | > 100 µM | 5.48 µM | 4.88 µM | 5.96 µM | 7.91 µM | −4.00 | 4.24 µM | 5.09 µM | 4.51 µM | 3.41 µM |  |  |  |  |  |  |  | mean graph midpoint values (MG_MID) of log10TGI, range [1]: −4.00 |
| COc1cc(OC)cc(-c2cncn2-c2ccc(-c3nc4cc(OC)c(OC)c(OC)c4s3)cc2)c1 [Compound 7d, 2-(4-(5-(3,5-Dimethoxyphenyl)-1H-imidazol-1-yl)phenyl)-5,6,7-trimethoxybenzo[d]thiazole] |  | 2.9 µM | 26.4 µM | > 100 µM | 5.72 µM | 8.33 µM | 13.7 µM |  |  | 4.11 µM | 1.87 µM | 3.85 µM | 6.07 µM | −5.39 | −5.73 | >−4.0 | > 100 µM | −4.86 | 3.79 µM | −4.97 | Log10GI50 (HOP-62): −4.58 log10 M; Log10GI50 (CAKI-1): −5.42; Log10GI50 (MDA-MB-435): −5.22; microtubulin organization [2]: disrupted microtubulin organization; caspase-9 protein (Western blot) (caspase-9): increase; p21 protein (Western blot) (p21): increase |
| COc1ccc(-c2cncn2-c2ccc(-c3nc4cc(OC)c(OC)c(OC)c4s3)cc2)cc1N [Compound 7j, 2-Methoxy-5-(1-(4-(5,6,7-trimethoxybenzo[d]thiazol-2-yl)phenyl)-1H-imidazol-5-yl)benzeneamine] | 3.41 µM |  |  |  | 4.02 µM | 3.87 µM | 6.21 µM | 5.91 µM | −4.00 | 4 µM | 7.54 µM | 2.94 µM | 3.13 µM | −5.40 | −5.12 |  |  | −5.21 | 4.82 µM | −5.07 | Log10GI50 (CCRF-CEM): −5.47; Log10GI50 (CAKI-1): −5.32; Log10GI50 (M14): −5.23; Log10GI50 (MDA-MB-435): −5.50 |
| COc1cc(-c2cncn2-c2ccc(-c3nc4ccc(F)cc4s3)cc2)ccc1F [Compound 4c, 6-Fluoro-2-(4-(5-(4-fluoro-3-methoxyphenyl)-1H-imidazol-1-yl)phenyl)benzo[d]thiazole] | 6.92 µM | 4.11 µM | 40.7 µM | > 100 µM | 82.3 µM | 10.8 µM | 7.81 µM | 33.4 µM |  | 3.41 µM |  | 56.8 µM | 17.1 µM | −5.47 |  | −5.26 | 5.47 µM | −5.11 | > 100 µM | −4.96 | Log10GI50 (CCRF-CEM): −5.16; Log10GI50 (HOP-62): −4.39 log10 M; Log10GI50 (M14): −4.48; Log10GI50 (MDA-MB-435): −4.77 |
| COc1cc(OC)cc(-c2cncn2-c2ccc(-c3nc4cc(OC)cc(OC)c4s3)cc2)c1 [Compound 6d, 2-(4-(5-(3,5-Dimethoxyphenyl)-1H-imidazol-1-yl)phenyl)-5,7-dimethoxybenzo[d]thiazole] |  |  | 6.65 µM | > 100 µM |  |  |  |  | −4.00 |  |  |  | 1.53 µM |  |  |  |  |  | 2.13 µM |  |  |
| COc1cc2nc(-c3ccc(-n4cncc4-c4ccc(N)cc4)cc3)sc2c(OC)c1OC [Compound 7h, 4-(1-(4-(5,6,7-Trimethoxybenzo[d]thiazol-2-yl)phenyl)-1H-imidazol-5-yl)benzenamine] |  |  |  |  |  | 2.79 µM |  | 2.1 µM |  |  | 2.49 µM |  |  |  | −5.60 | −6.35 | 0.446 µM |  | 1.41 µM | −5.74 | Log10GI50 (CAKI-1): −5.85; Log10GI50 (M14): −5.68; caspase-9 protein (Western blot) (caspase-9): increase; p21 protein (Western blot) (p21): increase |
